Source: the CheMixHub viscosity set

Experiment: xn = mol fraction of the nth substance listed

CCN(CC)CC + Cc1ccccc1
303.15 K, 101 kPa
Conditions | viscosity [mPa·s]
x1 = 0.01196 | 0.5137
x1 = 0.02231 | 0.5093
x1 = 0.03105 | 0.5049
x1 = 0.04186 | 0.4993
x1 = 0.04881 | 0.4963
x1 = 0.0617 | 0.4911
x1 = 0.0685 | 0.4859
x1 = 0.07915 | 0.4823
x1 = 0.09159 | 0.4786
x1 = 0.1002 | 0.4755

ClC(Cl)(Cl)Cl + O=S1(=O)CCCC1
viscosity [mPa·s], 101.33 kPa
Conditions | 303.15 K | 313.15 K | 323.15 K
x2 = 0.066 | 1.002 | 0.8675 | 0.7607
x2 = 0.1374 | 1.243 | 1.062 | 0.9177
x2 = 0.2048 | 1.532 | 1.286 | 1.098
x2 = 0.3138 | 2.043 | 1.691 | 1.425
x2 = 0.3838 | 2.392 | 1.974 | 1.658
x2 = 0.4188 | 2.589 | 2.133 | 1.79
x2 = 0.4879 | 3.046 | 2.498 | 2.082
x2 = 0.5667 | 3.682 | 2.982 | 2.47
x2 = 0.6334 | 4.338 | 3.481 | 2.855
x2 = 0.705 | 5.162 | 4.107 | 3.348
x2 = 0.7743 | 6.124 | 4.817 | 3.9
x2 = 0.8473 | 7.286 | 5.711 | 4.571
x2 = 0.8955 | 8.168 | 6.367 | 5.053

ClC(Cl)(Cl)Cl + Cc1cccc(C)c1
298.15 K, 101 kPa
Conditions | viscosity [mPa·s]
x1 = 0.1974 | 0.609
x1 = 0.3803 | 0.665
x1 = 0.4687 | 0.716
x1 = 0.5267 | 0.751
x1 = 0.5964 | 0.792
x1 = 0.7155 | 0.851
x1 = 0.8693 | 0.894
x1 = 0.9105 | 0.902

CCCC(C)=O + CN(C)c1ccccc1
viscosity [mPa·s], 101 kPa
Conditions | 303.15 K | 308.15 K
x2 = 0.0756 | 0.574 | 0.525
x2 = 0.1362 | 0.669 | 0.611
x2 = 0.2003 | 0.76 | 0.7
x2 = 0.2795 | 0.875 | 0.803
x2 = 0.3412 | 0.941 | 0.873
x2 = 0.4101 | 1.012 | 0.94
x2 = 0.4921 | 1.072 | 1.001
x2 = 0.5741 | 1.112 | 1.041
x2 = 0.6512 | 1.134 | 1.063
x2 = 0.7214 | 1.143 | 1.071
x2 = 0.7914 | 1.148 | 1.074
x2 = 0.8512 | 1.15 | 1.076
x2 = 0.9214 | 1.159 | 1.085

ClC(Cl)(Cl)Cl + CCCCO
Conditions | viscosity [mPa·s]
298.15 K, 101 kPa, x2 = 0.0326 | 0.903
298.15 K, 101 kPa, x2 = 0.0846 | 0.92
298.15 K, 101 kPa, x2 = 0.1 | 0.918
298.15 K, 101 kPa, x2 = 0.19 | 0.975
298.15 K, 101 kPa, x2 = 0.2668 | 1.058
298.15 K, 101 kPa, x2 = 0.27 | 1.046
298.15 K, 101 kPa, x2 = 0.34 | 1.135
298.15 K, 101 kPa, x2 = 0.425 | 1.293
298.15 K, 101 kPa, x2 = 0.4916 | 1.42
298.15 K, 101 kPa, x2 = 0.58 | 1.56
298.15 K, 101 kPa, x2 = 0.629 | 1.778
298.15 K, 101 kPa, x2 = 0.67 | 1.794
298.15 K, 101 kPa, x2 = 0.6978 | 1.88
298.15 K, 101 kPa, x2 = 0.76 | 1.979
298.15 K, 101 kPa, x2 = 0.7789 | 2.078
298.15 K, 101 kPa, x2 = 0.836 | 2.291
298.15 K, 101 kPa, x2 = 0.89 | 2.325
298.15 K, 101.32 kPa, x2 = 0.09917 | 0.919
298.15 K, 101.32 kPa, x2 = 0.1956 | 0.972
298.15 K, 101.32 kPa, x2 = 0.3011 | 1.074
298.15 K, 101.32 kPa, x2 = 0.3746 | 1.163
298.15 K, 101.32 kPa, x2 = 0.5434 | 1.464
298.15 K, 101.32 kPa, x2 = 0.5847 | 1.552
298.15 K, 101.32 kPa, x2 = 0.687 | 1.806
298.15 K, 101.32 kPa, x2 = 0.7888 | 2.065
298.15 K, 101.32 kPa, x2 = 0.8923 | 2.329
303.15 K, 101 kPa, x2 = 0.0559 | 0.8424
303.15 K, 101 kPa, x2 = 0.057 | 0.8423
303.15 K, 101 kPa, x2 = 0.1084 | 0.8543
303.15 K, 101 kPa, x2 = 0.1137 | 0.856
303.15 K, 101 kPa, x2 = 0.1851 | 0.8882
303.15 K, 101 kPa, x2 = 0.1887 | 0.8907
303.15 K, 101 kPa, x2 = 0.2871 | 0.9679
303.15 K, 101 kPa, x2 = 0.3823 | 1.076
303.15 K, 101 kPa, x2 = 0.4772 | 1.215
303.15 K, 101 kPa, x2 = 0.5086 | 1.268
303.15 K, 101 kPa, x2 = 0.6468 | 1.527
303.15 K, 101 kPa, x2 = 0.6792 | 1.593
303.15 K, 101 kPa, x2 = 0.7591 | 1.764
303.15 K, 101 kPa, x2 = 0.8416 | 1.943
303.15 K, 101 kPa, x2 = 0.893 | 2.054
303.15 K, 101 kPa, x2 = 0.9516 | 2.176
303.15 K, 101 kPa, x2 = 0.9563 | 2.186
303.15 K, 101.3 kPa, x1 = 0.7915 | 1.005
308.15 K, 101 kPa, x2 = 0.0846 | 0.801
308.15 K, 101 kPa, x2 = 0.2668 | 0.902
308.15 K, 101 kPa, x2 = 0.629 | 1.372
308.15 K, 101 kPa, x2 = 0.6978 | 1.487
308.15 K, 101 kPa, x2 = 0.7789 | 1.647
308.15 K, 101 kPa, x2 = 0.836 | 1.76
318.15 K, 101 kPa, x2 = 0.0326 | 0.684
318.15 K, 101 kPa, x2 = 0.0846 | 0.692
318.15 K, 101 kPa, x2 = 0.2668 | 0.773
318.15 K, 101 kPa, x2 = 0.425 | 0.883
318.15 K, 101 kPa, x2 = 0.4916 | 0.95
318.15 K, 101 kPa, x2 = 0.629 | 1.116
318.15 K, 101 kPa, x2 = 0.6978 | 1.189
318.15 K, 101 kPa, x2 = 0.7789 | 1.313
318.15 K, 101 kPa, x2 = 0.836 | 1.416

ClC(Cl)(Cl)Cl + C=C(C)C(=O)OC
303.15 K, 101 kPa
Conditions | viscosity [mPa·s]
x2 = 0.0997 | 0.7954
x2 = 0.1978 | 0.753
x2 = 0.4056 | 0.6767
x2 = 0.5067 | 0.641
x2 = 0.5941 | 0.6167
x2 = 0.7976 | 0.5599
x2 = 0.8944 | 0.536

[Br-].[Li+] + CN1CCCC1=O
298.15 K, 101 kPa
Conditions | viscosity [mPa·s]
x1 = 0.02596 | 2.385
x1 = 0.02626 | 2.359
x1 = 0.02735 | 2.37
x1 = 0.05088 | 3.13
x1 = 0.05114 | 3.124
x1 = 0.05202 | 3.192
x1 = 0.07505 | 4.349
x1 = 0.07536 | 4.344
x1 = 0.07626 | 4.329
